Bounds are passed on as bounds.

Series [1] can be described thus: In vivo pharmacokinetic study. Further details: species or system Sprague–Dawley rats. To be noted: rats; for AUC(0-inf) / AUC(0-t) / CL/F / Cmax / Tmax / half-life: male, Sprague-Dawley, rat, plasma. As for the experimental part: The in vivo pharmacokinetics parameters of compound 29 were measured in rats over 24 h following intraperitoneal (IP) and oral (PO) administration (Figure 4). These experiments were conducted to evaluate the compound’s absorption, distribution, metabolism, and excretion profiles under different routes of administration. Male Sprague–Dawley rats (n = 3 per group, weight 200–250 g) were fasted overnight but had free access to water. All animal experiments were conducted in accordance with institutional guidelines. For intraperitoneal (IP) administration, compound 29 was dissolved in saline and DMSO, while for oral (PO) administration, the compound was suspended in 0.5% carboxymethyl cellulose (CMC). All solutions were freshly prepared and filtered before administration to ensure homogeneity. Compound 29 was administered at 5 mg/kg via intraperitoneal injection or at 10 mg/kg by oral gavage. […] Blood was collected into EDTA-coated tubes and centrifuged at 2000× g for 10 min at 4 °C to separate plasma. Plasma samples were stored at −80 °C until analysis. Before analysis, plasma samples were thawed on ice, and proteins were precipitated using acetonitrile containing an internal standard. The mixture was centrifuged, and the supernatant was collected for analysis. Plasma concentrations of compound 29 were determined using a validated LC-MS/MS method. […] Quantification was performed in Multiple Reaction Monitoring (MRM) mode using Xcalibur software (version 4.4). Pharmacokinetic parameters, including AUClast, AUCinf, Cmax, Tmax, t1/2, Cl/F, and Vd, were calculated using non-compartmental analysis (NCA) with Phoenix WinNonlin software 8.5.2 (Certara, Radnor, PA, USA).

In another series the target is CYP2C9 (Homo sapiens, UniProt P11712). As to the kind of experiment: in vitro. The settings on record: microsomes, pH 7.4, CYP2C9 % of inhibition.
Sequence of CYP2C9 (P11712 whole entry): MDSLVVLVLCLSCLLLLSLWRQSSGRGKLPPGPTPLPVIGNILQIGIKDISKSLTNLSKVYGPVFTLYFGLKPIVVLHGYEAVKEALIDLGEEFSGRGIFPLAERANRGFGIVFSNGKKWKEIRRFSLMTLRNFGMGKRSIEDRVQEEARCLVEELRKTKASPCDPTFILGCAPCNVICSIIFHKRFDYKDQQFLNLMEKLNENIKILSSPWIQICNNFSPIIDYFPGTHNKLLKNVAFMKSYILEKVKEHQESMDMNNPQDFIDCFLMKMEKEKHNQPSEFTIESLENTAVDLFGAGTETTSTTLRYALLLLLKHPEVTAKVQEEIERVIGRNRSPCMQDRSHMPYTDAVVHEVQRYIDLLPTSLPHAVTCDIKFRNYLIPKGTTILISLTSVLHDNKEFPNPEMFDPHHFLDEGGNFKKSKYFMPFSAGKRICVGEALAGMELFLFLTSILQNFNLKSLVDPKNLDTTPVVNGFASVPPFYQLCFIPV

In series [1] (IP, 5 mg/kg), `N#Cc1ccc2[nH]cc(C(=O)NCCN3CCN(c4ccc5ccccc5n4)CC3)c2c1` [Compound 29, 5-Cyano-N-(2-(4-(quinolin-2-yl)piperazin-1-yl)ethyl)-1H-indole-3-carboxamide] had an AUC(0-inf) of 1380 ng·h/mL, an AUC(0-t) of 1030 ng·h/mL, a CL/F of 64.7 mL/min/kg and a peak concentration (Cmax) of 208 ng/mL. Further, in series [1] (IP, 5 mg/kg), the Tmax amounted to 2.83 h, the half-life is 3.49 h and the Vd is reported as 17.9 L/kg. Besides, in series [1] (PO, 10 mg/kg), the area under the curve AUC(0-inf) came out at 430 ng·h/mL, the AUC(0-t) worked out at 407 ng·h/mL, the CL/F was 401 mL/min/kg and the highest level (Cmax) was 113 ng/mL. For the same compound, in series [1] (PO, 10 mg/kg), the Tmax was determined as 1.5 h, the half-life was 1.67 h and the Vd turned out to be 57.4 L/kg. In addition, the inhibition at 15 min, 10 µM at CYP2C9 is less than 50%.

For orientation: AUC(0-inf) means the area under the concentration-time curve extrapolated to infinity. A low value points to less exposure. As a reminder, the AUC(0-t) is the area under the concentration-time curve up to a stated or last time point. The low end stands for low exposure, the high end for high exposure. Usually CL/F stands for the apparent clearance, not corrected for the fraction that reaches the circulation. The Cmax is the maximum level reached in the sampled fluid or tissue. A word on the Tmax: it is the time from dosing to the highest level. The half-life is how long it takes for the measured level to halve. Low readings indicate rapid decline, high ones slow decline. In general, inhibition refers to the share of the control response that was lost under treatment. High values mean a response far below the control, low ones a response near the control.

These data come from PMC11859264, “Discovery of a Novel Multitarget Analgesic Through an In Vivo-Guided Approach” (Pharmaceuticals, 2025).
